Test results published in ChEMBL document CHEMBL1201862, “PubChem BioAssay data set” (2004).
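The compound was tested at five concentrations on cells cultured in 96-well plates, with a 48-hour exposure period. GI50 marks 50% less growth.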 Calls of active or inactive are those of the source. Rule as the data show it: active = GI50 up to about 1.1 µM and inactive = higher.

Key:
Test in all cases: NCI anticancer screen, dose series, 48 h
[1] = test system: HCT-116
[2] = test system: NCI/ADR-RES
[3] = test system: A498
[4] = test system: Hs-578T
[5] = test system: RXF 393
[6] = test system: COLO 205
[7] = test system: NCI-H226
[8] = test system: Malme-3M
[9] = test system: CCRF-CEM
[10] = test system: SW-620
[11] = test system: MDA-MB-435
[12] = test system: NCI-H23
[13] = test system: RPMI-8226
[14] = test system: UACC-62
[15] = test system: LOX IMVI
[16] = test system: OVCAR-3
[17] = test system: UO-31
[18] = test system: U-251
[19] = test system: OVCAR-5
[20] = test system: HOP-62
[21] = test system: CAKI-1
[22] = test system: OVCAR-8
[23] = test system: MOLT-4
[24] = test system: A549
[25] = test system: HL-60
[26] = test system: SK-MEL-5
[27] = test system: DU-145
[28] = test system: SF-539
[29] = test system: 786-0
[30] = test system: NCI-H460
[31] = test system: EKVX
[32] = test system: HT-29
[33] = test system: BT-549
[34] = test system: T47D
[35] = test system: M14
[36] = test system: SNB-75
[37] = test system: HCC 2998
[38] = test system: MCF7
[39] = test system: MDA-N
[40] = test system: MDA-MB-231
[41] = test system: TK-10
[42] = test system: PC-3
[43] = test system: SN12C
[44] = test system: OVCAR-4
[45] = test system: SF-268
[46] = test system: SF-295
[47] = test system: K562
[48] = test system: UACC-257
[49] = test system: KM12
[50] = test system: SK-OV-3
[51] = test system: SK-MEL-28
[52] = test system: IGROV-1
[53] = test system: HOP-92
[54] = test system: SK-MEL-2
[55] = test system: SR
[56] = test system: HCT-15
[57] = test system: SNB-19
[58] = test system: ACHN
[59] = test system: NCI-H522
[60] = test system: KM-20L2
[61] = test system: DMS-114
[62] = test system: XF498
[63] = test system: LXFL 529
[64] = test system: M19-MEL

With O=C(CC(c1ccccc1)N1CCCCC1)c1ccccc1 (stereo not drawn) the GI50 [1] was 7.31 µM (inactive), the GI50 [2] was 22.5 µM (inactive) and the GI50 [3] was 15.6 µM (inactive). The GI50 [4] was 24.8 µM (inactive), the GI50 [5] was 18 µM (inactive) and the GI50 [6] was 20.1 µM (inactive). The GI50 [7] was 18.4 µM (inactive), the GI50 [8] was 16 µM (inactive) and the GI50 [9] was 2.09 µM (inactive). The GI50 [10] was 4.06 µM (inactive), the GI50 [11] was 12.2 µM (inactive) and the GI50 [12] was 16 µM (inactive). The GI50 [13] was 2.49 µM (inactive), the GI50 [14] was 16.6 µM (inactive) and the GI50 [15] was 5.66 µM (inactive). The GI50 [16] was 11.2 µM (inactive), the GI50 [17] was 19.2 µM (inactive) and the GI50 [18] was 9.51 µM (inactive). For the same molecule, the GI50 [19] was 17.5 µM (inactive), the GI50 [20] was 17.7 µM (inactive) and the GI50 [21] was 15.7 µM (inactive). For the same molecule, the GI50 [22] was 15.5 µM (inactive), the GI50 [23] was 1.96 µM (inactive) and the GI50 [24] was 20.5 µM (inactive). The GI50 [25] was 12.5 µM (inactive), the GI50 [26] was 15.6 µM (inactive) and the GI50 [27] was 15.1 µM (inactive). For the same molecule, the GI50 [28] was 19 µM (inactive), the GI50 [29] was 11.2 µM (inactive) and the GI50 [30] was 13 µM (inactive). The GI50 [31] was 17.7 µM (inactive), the GI50 [32] was 13.8 µM (inactive) and the GI50 [33] was 18.2 µM (inactive). For the same molecule, the GI50 [34] was 17.9 µM (inactive), the GI50 [35] was 21.5 µM (inactive) and the GI50 [36] was 16.6 µM (inactive). For the same molecule, the GI50 [37] was 4.62 µM (inactive), the GI50 [38] was 2.47 µM (inactive) and the GI50 [39] was 12.2 µM (inactive). For the same molecule, the GI50 [40] was 18.9 µM (inactive), the GI50 [41] was 14.2 µM (inactive) and the GI50 [42] was 15 µM (inactive). For the same molecule, the GI50 [43] was 15.6 µM (inactive), the GI50 [44] was 18.4 µM (inactive) and the GI50 [45] was 16 µM (inactive). The GI50 [46] was 16.5 µM (inactive), the GI50 [47] was 1.44 µM (inactive) and the GI50 [48] was 14.4 µM (inactive). The GI50 [49] was 6.82 µM (inactive), the GI50 [50] was 17.6 µM (inactive) and the GI50 [51] was 17.8 µM (inactive). The GI50 [52] was 14 µM (inactive), the GI50 [53] was 15 µM (inactive) and the GI50 [54] was 19.8 µM (inactive). The GI50 [55] was 1.7 µM (inactive), the GI50 [56] was 14.9 µM and the GI50 [57] was 19.6 µM (inactive). For the same molecule, the GI50 [58] was 17 µM (inactive) and the GI50 [59] was 12.9 µM (inactive).

CC(C)(C)c1cc(OCc2nnc3sc(S)nn23)c(Cl)cc1OCc1nnc2sc(S)nn12 was tested, and the GI50 [1] was 22.1 µM (inactive), the GI50 [2] was 78.5 µM (inactive) and the GI50 [3] was 39.6 µM (inactive). The GI50 [4] was 77.3 µM (inactive), the GI50 [5] was 22.4 µM (inactive) and the GI50 [6] was 39.1 µM (inactive). The GI50 [7] was > 100 µM (inactive), the GI50 [8] was 16.6 µM (inactive) and the GI50 [9] was 11.3 µM (inactive). For the same molecule, the GI50 [10] was 31.9 µM (inactive), the GI50 [11] was 23.6 µM (inactive) and the GI50 [12] was 28.7 µM (inactive). The GI50 [13] was 30.7 µM (inactive), the GI50 [14] was 17.4 µM (inactive) and the GI50 [15] was 18.4 µM (inactive). The GI50 [16] was 25.2 µM (inactive), the GI50 [17] was 43.9 µM (inactive) and the GI50 [18] was 29.1 µM (inactive). The GI50 [19] was 35.2 µM (inactive), the GI50 [20] was 44.1 µM (inactive) and the GI50 [21] was 33.6 µM (inactive). For the same molecule, the GI50 [22] was 37.2 µM (inactive), the GI50 [23] was 23.8 µM (inactive) and the GI50 [24] was 35.1 µM (inactive). For the same molecule, the GI50 [25] was 22.5 µM (inactive), the GI50 [26] was 14.5 µM (inactive) and the GI50 [27] was 30.3 µM (inactive). For the same molecule, the GI50 [28] was 35.7 µM (inactive), the GI50 [29] was 31 µM (inactive) and the GI50 [30] was 29 µM (inactive). The GI50 [31] was 30.3 µM (inactive), the GI50 [32] was 38 µM (inactive) and the GI50 [33] was 30.5 µM (inactive). The GI50 [34] was 19 µM (inactive), the GI50 [35] was 25.9 µM (inactive) and the GI50 [36] was 38.8 µM (inactive). For the same molecule, the GI50 [37] was 31.8 µM (inactive), the GI50 [38] was 15.6 µM (inactive) and the GI50 [39] was 18.9 µM (inactive). For the same molecule, the GI50 [40] was 36.6 µM (inactive), the GI50 [41] was 35 µM (inactive) and the GI50 [42] was 50.9 µM (inactive). The GI50 [43] was 30.4 µM (inactive), the GI50 [44] was 32.5 µM (inactive) and the GI50 [45] was 24.9 µM (inactive). For the same molecule, the GI50 [46] was 27.9 µM (inactive), the GI50 [47] was 32.6 µM (inactive) and the GI50 [48] was 27.7 µM (inactive). The GI50 [49] was 26.9 µM (inactive), the GI50 [50] was 45.4 µM (inactive) and the GI50 [51] was 22.3 µM (inactive). The GI50 [52] was 23.2 µM (inactive), the GI50 [53] was 17.5 µM (inactive) and the GI50 [54] was 27.4 µM (inactive). For the same molecule, the GI50 [55] was 18.3 µM (inactive), the GI50 [56] was 40.6 µM and the GI50 [57] was 35.5 µM (inactive). For the same molecule, the GI50 [58] was 26.1 µM (inactive) and the GI50 [59] was 17.3 µM (inactive).

For COc1cccc(N2C(Cl)C(=O)C2c2c[nH]c3ccccc23)c1 (stereo not drawn), the GI50 [1] was > 100 µM (inactive), the GI50 [5] was > 100 µM (inactive) and the GI50 [6] was > 100 µM (inactive). For the same molecule, the GI50 [8] was 80.9 µM (inactive), the GI50 [9] was > 100 µM (inactive) and the GI50 [10] was > 100 µM (inactive). The GI50 [12] was > 100 µM (inactive), the GI50 [13] was > 100 µM (inactive) and the GI50 [14] was > 100 µM (inactive). For the same molecule, the GI50 [16] was > 100 µM (inactive), the GI50 [17] was 42.8 µM (inactive) and the GI50 [60] was > 100 µM (inactive). The GI50 [18] was > 100 µM (inactive), the GI50 [19] was 46.1 µM (inactive) and the GI50 [20] was > 100 µM (inactive). For the same molecule, the GI50 [22] was > 100 µM (inactive), the GI50 [23] was > 100 µM (inactive) and the GI50 [24] was > 100 µM (inactive). The GI50 [25] was > 100 µM (inactive), the GI50 [26] was > 100 µM (inactive) and the GI50 [61] was > 100 µM (inactive). For the same molecule, the GI50 [62] was > 100 µM (inactive), the GI50 [30] was > 100 µM (inactive) and the GI50 [31] was > 100 µM (inactive). The GI50 [32] was > 100 µM (inactive), the GI50 [63] was > 100 µM (inactive) and the GI50 [35] was > 100 µM (inactive). For the same molecule, the GI50 [36] was > 10 µM (inactive), the GI50 [41] was > 100 µM (inactive) and the GI50 [43] was > 100 µM (inactive). The GI50 [44] was > 100 µM (inactive), the GI50 [45] was > 100 µM (inactive) and the GI50 [46] was > 100 µM (inactive). The GI50 [47] was > 100 µM (inactive), the GI50 [48] was > 100 µM (inactive) and the GI50 [49] was > 100 µM (inactive). The GI50 [50] was > 100 µM (inactive), the GI50 [51] was > 100 µM (inactive) and the GI50 [52] was > 100 µM (inactive). For the same molecule, the GI50 [53] was > 100 µM (inactive), the GI50 [54] was > 100 µM (inactive) and the GI50 [64] was > 100 µM (inactive). The GI50 [55] was > 100 µM (inactive), the GI50 [57] was > 100 µM (inactive) and the GI50 [59] was > 100 µM (inactive).
